This assay relates to Bacillus anthracis. In kind it is cell-based.

Several values for one entry are separate records, joined by “and”; a condition that tells them apart may be missing. Equal values may be shown once.

With `Cc1cc(Cl)ccc1-c1cc(C(O)(C(F)(F)F)C(F)(F)F)sc1-c1ccc(Cl)cc1CO` [DNM94A, 2-(5-(4-chloro-2-(hydroxymethyl)phenyl)-4-(4-chloro-2-methylphenyl)thiophen-2-yl)-1,1,1,3,3,3-hexafluoropropan-2-ol], the MIC came out at 1 µg·mL, the MIC50 came out at 1 µg·mL and the MIC90 was found to be 1 µg·mL.

Take `Cc1cc(Cl)ccc1-c1sc(C(O)(C(F)(F)F)C(F)(F)F)cc1-c1ccc(Cl)cc1CO` [DNM95A, 2-(4-(4-chloro-2-(hydroxymethyl)phenyl)-5-(4-chloro-2-methylphenyl)thiophen-2-yl)-1,1,1,3,3,3-hexafluoropropan-2-ol]: the MIC is 1 µg·mL and 0.5 µg·mL; the MIC50 is 1 µg·mL; the MIC90 was found to be 1 µg·mL.

Consider colistin [reference compound], for which the MIC50 entry is “GT64 μg ml” and the MIC90 entry is reported as “GT64 μg ml”.

Source of the values: US20250161266A1, “Antibacterial 4.5 Diaryl-Thiophen-2-YL Hexafluoropropan-2-OLS” (priority 2022, published 2025).
